Experimental data taken from patent publication US4065557A, “Amino sugars and their use in improving the meat:fat ratio in animals” (Bayer Aktiengesellschaft, priority 1974, dated 1977).

What was measured:
saccharase = biological target: T1, saccharase (Sus scrofa, UniProt P56729); assay: In vitro saccharase test; type: biochemical, pig; details: for saccharase inhibitor specific activity: sucrose, pH 6.0, 35° C
T1 construct: from tissue; host or cells: mucous membrane of the small intestine of the pig, solubilized according to Borgstrom and Dahlquist 1958
T1 sequence (P56729 with tags, fused parts or gaps limits assumed): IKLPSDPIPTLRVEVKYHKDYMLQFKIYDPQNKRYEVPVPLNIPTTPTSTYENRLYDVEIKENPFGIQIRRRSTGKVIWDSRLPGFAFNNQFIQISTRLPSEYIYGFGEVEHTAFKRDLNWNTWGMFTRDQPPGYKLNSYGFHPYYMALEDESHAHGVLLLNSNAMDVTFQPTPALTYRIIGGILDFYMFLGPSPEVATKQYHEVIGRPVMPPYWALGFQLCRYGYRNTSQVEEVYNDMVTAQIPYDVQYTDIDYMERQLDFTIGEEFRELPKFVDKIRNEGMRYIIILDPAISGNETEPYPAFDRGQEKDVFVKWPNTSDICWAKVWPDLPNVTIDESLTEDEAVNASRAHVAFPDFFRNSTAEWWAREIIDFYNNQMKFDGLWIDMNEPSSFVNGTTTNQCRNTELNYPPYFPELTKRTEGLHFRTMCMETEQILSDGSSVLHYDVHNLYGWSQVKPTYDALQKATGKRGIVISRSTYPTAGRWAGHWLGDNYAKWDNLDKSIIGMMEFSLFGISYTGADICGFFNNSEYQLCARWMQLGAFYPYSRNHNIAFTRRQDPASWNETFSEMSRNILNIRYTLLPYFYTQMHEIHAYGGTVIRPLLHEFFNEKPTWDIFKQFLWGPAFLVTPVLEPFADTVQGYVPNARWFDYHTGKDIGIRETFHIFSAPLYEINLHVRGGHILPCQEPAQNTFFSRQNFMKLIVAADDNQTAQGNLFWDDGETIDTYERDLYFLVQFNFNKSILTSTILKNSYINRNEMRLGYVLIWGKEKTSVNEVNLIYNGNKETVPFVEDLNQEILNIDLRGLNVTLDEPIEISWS
T1 sequence (P56729 with tags, fused parts or gaps partner limits assumed): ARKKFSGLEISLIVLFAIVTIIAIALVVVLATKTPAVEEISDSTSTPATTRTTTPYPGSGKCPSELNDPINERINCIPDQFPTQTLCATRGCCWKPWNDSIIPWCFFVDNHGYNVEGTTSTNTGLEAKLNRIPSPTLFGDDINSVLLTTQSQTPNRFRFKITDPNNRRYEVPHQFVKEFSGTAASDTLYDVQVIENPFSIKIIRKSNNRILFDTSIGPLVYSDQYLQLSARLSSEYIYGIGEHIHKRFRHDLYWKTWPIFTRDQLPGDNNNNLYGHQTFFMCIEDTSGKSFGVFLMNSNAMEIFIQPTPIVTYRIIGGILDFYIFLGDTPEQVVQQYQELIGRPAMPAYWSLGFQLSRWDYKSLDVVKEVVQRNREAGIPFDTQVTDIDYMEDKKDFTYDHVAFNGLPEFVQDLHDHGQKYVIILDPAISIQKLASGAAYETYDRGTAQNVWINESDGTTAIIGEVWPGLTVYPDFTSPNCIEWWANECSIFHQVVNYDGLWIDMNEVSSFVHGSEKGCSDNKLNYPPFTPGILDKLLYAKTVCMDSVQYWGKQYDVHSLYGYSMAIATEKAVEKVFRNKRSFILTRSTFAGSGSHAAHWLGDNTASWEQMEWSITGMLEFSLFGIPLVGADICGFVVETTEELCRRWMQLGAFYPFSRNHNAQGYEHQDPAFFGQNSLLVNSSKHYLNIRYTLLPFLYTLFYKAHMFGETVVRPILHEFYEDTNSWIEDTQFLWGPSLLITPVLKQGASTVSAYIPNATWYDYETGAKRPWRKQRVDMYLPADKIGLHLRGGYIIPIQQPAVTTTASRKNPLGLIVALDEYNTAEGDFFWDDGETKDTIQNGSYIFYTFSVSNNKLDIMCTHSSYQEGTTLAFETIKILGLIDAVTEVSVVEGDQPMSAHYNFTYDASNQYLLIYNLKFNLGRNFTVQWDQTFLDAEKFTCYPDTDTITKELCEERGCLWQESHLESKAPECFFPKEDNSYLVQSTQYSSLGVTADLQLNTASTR
Procedure: One saccharase inhibitor unit (SIU) is defined as the amount of inhibitor which inhibits two saccharase units to the extent of 50%. One saccharase unit (SU) is the amount of enzyme which under the test conditions specified splits 1 μmol of sucrose to glucose and fructose per minute. The μmols of glucose formed are determined quantitatively by means of the glucose oxidase reaction under conditions under which a further splitting of the sucrose by the saccharase no longer takes place. To carry out the test, 0.05 ml of solubilized saccharase [from the mucous membrane of the small intestine of the pig, according to B. Borgstrom, A. Dahlquist, Acta Chem. Scand. […] The mixture is equilibrated for 10 minutes at 35° C and 0.1 ml of an 0.05 M sucrose solution in 0.1 m sodium maleate buffer of pH 6.0, pre-warmed to 35° C, is then added. The mixture is incubated for 20 minutes at 35° C, the saccharase reaction is stopped by addition of 1 ml of glucose oxidase reagent, and the incubation is continued for a further 30 minutes at 35° C. […] Thereafter, 1 ml of 50% strength H2 SO4 is added and a measurement carried out at 545 nm against a corresponding blank.

pancreas-α-amylase = biological target: T2, pancreas-α-amylase (Sus scrofa, UniProt P00690); assay: In vitro amylase test; type: biochemical; details: isolated product; starch, pH 6.9, 35° C
T2 sequence (P00690 16-511): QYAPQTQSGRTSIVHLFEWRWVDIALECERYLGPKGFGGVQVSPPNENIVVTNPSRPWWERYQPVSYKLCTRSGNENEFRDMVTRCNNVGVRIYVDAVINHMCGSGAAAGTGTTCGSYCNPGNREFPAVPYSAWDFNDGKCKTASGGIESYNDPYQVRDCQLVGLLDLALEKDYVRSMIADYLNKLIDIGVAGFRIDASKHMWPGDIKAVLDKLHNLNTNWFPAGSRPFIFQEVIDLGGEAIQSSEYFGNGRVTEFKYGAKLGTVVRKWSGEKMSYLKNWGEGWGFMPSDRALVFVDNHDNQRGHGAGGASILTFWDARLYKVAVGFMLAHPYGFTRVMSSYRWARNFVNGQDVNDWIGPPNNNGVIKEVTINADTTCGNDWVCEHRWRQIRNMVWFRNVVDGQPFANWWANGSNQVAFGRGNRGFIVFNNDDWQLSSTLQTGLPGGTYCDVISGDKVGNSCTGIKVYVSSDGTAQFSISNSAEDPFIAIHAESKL
Procedure: One amylase unit (AU) is the amount of enzyme which under the test conditions specified below splits 1 μequivalent of glucoside bonds in the starch per minute. […] To carry out the test, 0.1 ml of amylase solution (20-22 AU/ml) are mixed with 0-10 μg of inhibitor or 0-20 μl of the solution to be tested in 0.4 ml of 0.02 M sodium glycerophosphate buffer/0.001 M CaCl2, pH 6.9, and the mixture is equilibrated for 10-20 minutes in a water bath at 35° C. […] To develop the color, the batch is heated for 5 minutes on a boiling water bath and then cooled, and 10 ml of distilled water are added. The extinction at 540 nm is measured against a correspondingly made-up blank without amylase. […] The percentage inhibition is plotted as a function of the quotient [formula]

Solubility = type: physicochemical
starch digestion = assay: In vivo starch digestion (starch feeding test)

in vitro saccharase inhibition (in words) (saccharase; in vitro) | saccharase inhibitor specific activity (saccharase) | saccharase inhibitor specific activity (saccharase; listed as compound with 2 glucose units) | saccharase inhibitor specific activity (saccharase; listed as compound with 2 units) | saccharase inhibitor specific activity (saccharase; listed as compound with two glucose units) | amylase inhibitor specific activity (pancreas-α-amylase) | solubility in water (Solubility; amorphous solid) | saccharase inhibition relative to the derivative having two units (saccharase; in vitro) | saccharase inhibitor specific activity (saccharase; listed as compound with one glucose unit) | solubility (Solubility; water, dimethylformamide, dimethylsulfoxide, methanol and hot ethanol) | in vitro saccharase inhibiting activity (saccharase; isomer isolated on Dowex 50 W X 4) | SMILES | in vivo inhibition of starch digestion (in words) (starch digestion)
most pronounced | 50,000 SIU/g | 60,000 SIU/g | 68,000 SIU/g | 65,000 SIU/g | 0.3 × 10^6 AIU/g | readily water-soluble | – | – | – | – | C[C@H]1O[C@H](O[C@H]2[C@H](O)[C@@H](O)[C@@H](O[C@H]3[C@H](O)[C@@H](O)C(O)O[C@@H]3CO)O[C@@H]2CO)[C@H](O)[C@@H](O)[C@@H]1N[C@H]1C=C(CO)[C@@H](O)[C@H](O)[C@H]1O (stereo partly drawn) [compound having 2 glucose units, O-{4,6-bisdesoxy-4-[1 S-(1,4,6/5)-4,5,6-trihydroxy-3-hydroxymethylcyclohex-2-en-1-ylamino]-α-D-glucopyranosyl}-(1→4)-O-α-D-glucopyranosyl-(1→4)-D-glucopyranose] | much higher than would be expected from in vitro amylase inhibition
– | 30,000 SIU/g | – | – | – | 0.3 × 10^6 AIU/g | – | only half as much | 35,000 SIU/g | good solubility | – | C[C@H]1O[C@H](O[C@H]2[C@H](O)[C@@H](O)C(O)O[C@@H]2CO)[C@H](O)[C@@H](O)[C@@H]1N[C@H]1C=C(CO)[C@@H](O)[C@H](O)[C@H]1O (stereo partly drawn) [compound having one glucose unit, O-{4,6-bisdesoxy-4-[1 S-(1,4,6/5)-4,5,6-trihydroxy-3-hydroxymethylcyclohex-2-en-1-ylamino]-α-D-glucopyranosyl}-(1→4)-D-glucopyranose] | much higher than would be expected from in vitro amylase inhibition
– | – | – | – | – | – | – | – | – | – | 19,000 SIE/g | C[C@H]1O[C@H](O[C@H]2[C@H](O)[C@@H](O)[C@@H](O[C@H]3[C@H](O)[C@@H](O)[C@@H](O[C@H]4[C@H](O)[C@@H](O)C(O)O[C@@H]4CO)O[C@@H]3CO)O[C@@H]2CO)[C@H](O)[C@@H](O)[C@@H]1N[C@H]1C=C(CO)[C@@H](O)[C@H](O)[C@H]1O (stereo partly drawn) [isomer of Formula V, O-{4,5-bisdesoxy-4-[1S-(1,4,6/5)-4,5,6-trihydroxy-3-hydroxymethylcyclohex-2-en-1-ylamino]-α-D-glucopyranosyl}-(1→4)-O-α-D-glucopyranosyl-(1→4)-O-α-D-glucopyranosyl-(1→4)-D-glycopyranose] | –
